{
  "source": "paper PMC8802628",
  "about": "“Selective activation of PFKL suppresses the phagocytic oxidative burst” (Cell, 2021)",
  "key": {"PFKL": {"target": "T1, PFKL (Homo sapiens, UniProt P17858)", "T1 construct": "endogenous in cells; host or cells: THP-1 cell lysate", "T1 sequence (P17858 2-780 limits assumed)": "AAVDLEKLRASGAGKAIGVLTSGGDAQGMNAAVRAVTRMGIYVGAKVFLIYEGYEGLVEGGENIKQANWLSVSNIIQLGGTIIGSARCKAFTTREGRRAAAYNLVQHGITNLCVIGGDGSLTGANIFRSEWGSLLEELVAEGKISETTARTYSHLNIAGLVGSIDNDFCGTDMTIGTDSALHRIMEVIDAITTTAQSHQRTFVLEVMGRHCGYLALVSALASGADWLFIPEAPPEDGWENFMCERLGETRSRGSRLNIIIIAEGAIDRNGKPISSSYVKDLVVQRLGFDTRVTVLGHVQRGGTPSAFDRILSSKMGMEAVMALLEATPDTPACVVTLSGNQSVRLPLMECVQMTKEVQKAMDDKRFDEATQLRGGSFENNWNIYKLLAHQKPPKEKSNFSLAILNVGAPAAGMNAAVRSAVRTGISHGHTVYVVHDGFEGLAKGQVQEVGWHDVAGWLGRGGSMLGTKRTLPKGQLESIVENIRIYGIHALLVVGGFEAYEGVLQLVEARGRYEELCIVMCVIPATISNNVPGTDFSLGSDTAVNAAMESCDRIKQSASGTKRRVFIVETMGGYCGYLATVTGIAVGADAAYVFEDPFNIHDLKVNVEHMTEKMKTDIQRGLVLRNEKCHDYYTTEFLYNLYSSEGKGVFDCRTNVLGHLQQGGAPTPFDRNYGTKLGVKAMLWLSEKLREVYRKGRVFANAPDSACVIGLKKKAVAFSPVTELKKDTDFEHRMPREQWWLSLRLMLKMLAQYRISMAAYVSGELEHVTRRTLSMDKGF", "assay": "Photoaffinity labeling pull-down in human blood leukocytes", "format": "binding", "conditions": "1 μM probe, competition with 10 μM NA-11", "description": "Buffy coats (100 mL) were diluted with ice-cold water (540 mL) for 30 s to lyse red blood cells. Following addition of 10 x HBSS buffer (50 mL) leukocytes were pelleted for 3 min at 300 x g, then washed twice in D-PBS and resuspended in RPMI medium. Cells (2 × 10^7) were plated on 15-cm dishes in DMSO vehicle, 1 μM PALP1 or 1 μM PALP6 for 30 min at 37°C. For competition, 10 μM NA-11 was added for 15 min, and then 1 μM PALP1 was added for an additional 30 min. To crosslink the photoaffinity probe, cells were UV-irradiated (High intensity mercury spot lamp, 100W, 365 nm, UVP) in RPMI for 5 min on ice. Cells were lysed in 200 μL 10 mM Tris pH 7.5, 150 mM NaCl, 1% NP-40, 2.5 mM MgCl2, 0.5 mM CaCl2, 2% glycerol, 10 μg/mL DNase-I, and 1 x EDTA-free Protease inhibitor cocktail. Lysates from 5 plates for each condition were pooled and incubate 10 min on ice.\nBiotin-DADPS tagging, biotin-streptavidin affinity purification, and on-bead digestion were performed as described ([Hewings et al., 2018]). Briefly, lysates were cleared by centrifugation and the lysate concentration adjusted to 5 mg/mL. Streptavidin Ultralink Resin (100 μL of 50% slurry, Pierce) was washed twice with PBS and mixed with 1 mL of lysate for 30 min at room temperature. […]\nFor the classical TPP, quantitative data from each temperature were used to generate a thermal titration curve and calculate a melting point. […]"}, "E. coli": {"system": "E. coli", "assay": "Phagocytosis assay: E. coli C.F.U. recovered from PMNs", "format": "cell-based, human", "conditions": "neutrophils pretreated 30 min", "description": "Neutrophils (1 × 10^6) were cultured in 6-well tissue in RPMI medium containing DMSO vehicle, 0.5 μM NA-11, 0.5 μM NA-4, 100 μM Apocynin or 100 μM thionicotinamide (TN) for 30 min. E. coli grown in LB broth overnight (2 mL) were opsonized with human serum (1 mL pooled from three donors) for 1 h at room temperature. Opsonized bacteria were washed with PBS, resuspended in LB broth to an OD600of 0.1 and then added to cultured neutrophils at an MOI of 1 for 30 min. Cells were washed with medium three times and then cultured with 300 μg/mL gentamicin for 2 h to kill any extracellular bacteria. Cells were then washed again, twice with medium and once with PBS. To release phagocytosed bacteria, neutrophils were lysed in 0.05% saponin in PBS. Lysates were passed through a 25’ gauge needed several times and the number of viable phagocytosed bacteria was determined by colony counting."}},
  "data": [
    {"molecule": "CC(=O)Nc1ccc2c(c1)OCc1cc(-c3ccccc3C#CCCCO)nn1C2", "note": "[NA-11]", "values": [
      {"measurement": "photoaffinity labeling / pull-down of PFKL", "setting": "PFKL", "value": "competed effectively by NA-11"},
      {"measurement": "killing of phagocytosed bacteria (bacterial colonies recovered)", "setting": "E. coli", "value": "produced more bacterial colonies than control neutrophils"}
    ]}
  ]
}
